In US20080155704A1, “Methods and Compositions for Determining in vivo Activity of BiP” (King's College London, priority 2006, published 2008):

Tests used:
Type in all cases: cell-based, human
[1] = system: T cells; experiment: Regulatory markers on T cells co-cultured with BiP-treated dendritic cells
Protocol: FIG. 11: Co-culture of T cells with BiP-treated dendritic cells (DC) upregulates regulatory markers. […] Mean ±standard deviation of three experiments is shown.
Intracellular staining was carried out with fixed cells incubated with 1% paraformaldehyde in IF buffer for 5 minutes at room temperature. The cells were washed twice with IF buffer containing 0.3% saponin for permeabilization. 0.3% saponin was then present in all IF buffer used thereafter. CTLA-4/CD152 (BD), FoxP3 (eBioscience) and indolamine 2,3-dioxygenase (Santa Cruz) and cytokines required intracellular staining. Antibodies were added at the pre-determined optimal concentration for 20 mins and then the cells were washed twice with IF buffer and analysed. Isotype controls, IgG1 and IgG2a (Becton Dickinson, Oxford, UK) were used in parallel. Cells were analysed on a FACScan cytometer using Cellquest software (Becton Dickinson, Oxford, UK).
T cells were purified from peripheral blood mononuclear cells and set up in culture with either allogeneic or autologous dendritic cells, which had been washed and irradiated, at a ratio of 10 T cells:1 DC. The cells were co-cultured in a 24 well plate in 1 ml/well, in RPMI 1640 supplemented with 10% foetal calf serum, for 4 days then the T cells were removed and washed before being investigated for the presence of T regulatory cells (see below)
Immunofluorescent staining was performed, as described previously (39), on DC harvested at day 7, T cells after 4 days co-culture with DC. Saturating concentrations of fluorescein isothiocyanate (FITC)-, phycoerythrin (PE) or peridium chlorophyll (Per-CP)-conjugated mAb were added recognizing CD14, CD86, CD80, HLA-DR, CD11c, CD1a, CD83, CD85j, IL-10 receptor; purity of the negatively selected MO and T cells was checked using CD3, CD4, CD14, CD20 and CD57 (all from Becton Dickinson/PharMingen (BD), Oxford, UK). Intracellular staining was carried out following fixation of cells with 1% paraformaldehyde for 5 minutes. Cells were then washed with immunofluorescence buffer (PBS/0.1% BSA/0.05% azide) containing 0.3% saponin. 0.3% saponin was then present in all solutions thereafter. CD152/CTLA-4 (BD, Oxford UK) and IDO (Santa Cruz, Autogen Bioclear, UK) were intracellular stains. Isotype controls, IgG1 and IgG2a (BD, Oxford, UK) were used in parallel. Cells were analysed on a FACScan/FACScalibur cytometers using Cellquest software (BD, Oxford, UK).

[2] = system: IL-10; experiment: IL-10 production by dendritic cell cultures (ELISA); conditions: 3d GM-CSF and IL-4 with BiP 20 μg/ml; inhibitors 10 μM, anti-IL-10 added at day 0 (FIG. 13D)
Protocol: (§1) Supernatant samples were collected on day 1, 3 and 7 for iDC and from the final cultures of the T cells taken from the iDC/mDC-T cell allogeneic test system and set up with autologous cells to determine if there was any regulatory activity. The samples were aliquoted and frozen at −70° C. until required. Production IL-10 was quantified by ELISA using paired antibodies and recombinant standards (PharMingen, Oxford, UK) according to the recommendations of the manufacturer. In addition some were analysed by cytometric bead assay (BD, Oxford, UK) according to the manufacturers instructions.
(§2) To neutralize IL-10 within the cultures anti-IL-10 antibody (ATCC, Rockville, USA) was added at day 0 (5 μg/ml) to GM-CSF and IL-4 treated cultures in the presence and absence of BiP (20 μg/ml). Two specific cell-permeable inhibitors of the MAPK intracellular signalling pathways were used. SB203580 (SB)(10 μM)((Calbiochem, Darmstadt, Germany) inhibits p38 MAPK, and PD98059 (PD) (10 μM)(Calbiochem), an inhibitor of MAPK extracellular signal regulated kinase (ERK), were tested. MO were pre-treated with the inhibitors for 2 h before adding GM-CSF and IL-4 in the presence or absence of BiP.
as §1, with “of the pro-inflammatory cytokine, TNFα, and the anti-inflammatory cytokine, IL-10,” for “IL-10”

[3] = system: allogeneic T cells; experiment: Allogeneic proliferative response to early BiP treated DC (tritiated thymidine uptake); conditions: early DC 72 h; inhibitors 10 μM 2 h pre-treatment of monocytes; anti-IL-10 neutralizing antibody (FIG. 13A, B)
Protocol: Allogeneic responses by T cells in culture with irradiated (3,000 rads) early DC (eDC), after only 3d in culture with GM-CSF and IL-4 in the presence or absence of BiP (20 μg/ml) at a ratio of 10:1 PBMC:DC (105:10^4 cells/well). The results are shown as an allogeneic proliferative response (A) following addition of neutralizing anti-IL-10 ( 1/100 dilution) antibody and (B) the pre-treatment (2 h) of monocytes (MO) with p38 inhibitor, SB203580 (SB)(10 μM) or the ERK1/2 inhibitor, PD 98059 (PD)(10 μM), prior to the addition of GM-CSF and IL-4 to the cultures. The proliferation of PBMC to early DC following (C) the addition of BiP 24 h post addition of GM-CSF and IL-4. Proliferation was measured by uptake of tritiated thymidine and recorded as counts per minute (cpm). ELISA was used to detect IL-10 (D) in the culture supernatants and (E) by 7d cultured iDC/iDC(BiP) and fully matured mDC/mDC(BiP) differentiated as described in following 7d culture in GM-CSF and IL-4 with LPS (500 ng/ml) added for the final 2d.
as §2

SMILES: Cn1cc(C[C@H](N)C(=O)O)c2ccccc21 [1MT, 1 methyl tryptophan, reference compound]
- proliferation of T cells in an allogeneic response after co-culture with 1MT ([1]; 1MT 200 μM added to co-cultures of T cells with autologous mDC or mDC(BiP)): increased proliferation by the T cells
- T cell expression of intracellular CTLA-4 in the presence of 1MT ([1]; 1MT 200 μM in mDC/mDC(BiP)-T cell co-cultures, n=3): significant reduction in T cell expression of CTLA-4

SMILES: COc1cccc(-c2cc(=O)c3ccccc3o2)c1N [PD98059, reference compound]
- IL-10 production by early DC(BiP) cultures [2]: did not inhibit IL-10 production
- reversal of BiP's inhibitory activity on the allogeneic response [3]: could not

SMILES: C[S+]([O-])c1ccc(-c2nc(-c3ccncc3)c(-c3ccc(F)cc3)[nH]2)cc1 (stereo not drawn) [SB203580, reference compound]
- IL-10 production by early DC(BiP) cultures [2]: not detected
- reversal of BiP's inhibitory activity on the allogeneic response [3]: totally reversed BiP's inhibitory activity
